For one series, the target named is T1, androgen receptor (AR) (Homo sapiens, UniProt P10275, T878A).
T1 construct: LNCaP cells were transiently transfected with the PSA (6.1 kb)-luciferase reporter for 24 h; endogenous in cells; host or cells: LNCaP
T1 sequence (P10275 1-920 T878A): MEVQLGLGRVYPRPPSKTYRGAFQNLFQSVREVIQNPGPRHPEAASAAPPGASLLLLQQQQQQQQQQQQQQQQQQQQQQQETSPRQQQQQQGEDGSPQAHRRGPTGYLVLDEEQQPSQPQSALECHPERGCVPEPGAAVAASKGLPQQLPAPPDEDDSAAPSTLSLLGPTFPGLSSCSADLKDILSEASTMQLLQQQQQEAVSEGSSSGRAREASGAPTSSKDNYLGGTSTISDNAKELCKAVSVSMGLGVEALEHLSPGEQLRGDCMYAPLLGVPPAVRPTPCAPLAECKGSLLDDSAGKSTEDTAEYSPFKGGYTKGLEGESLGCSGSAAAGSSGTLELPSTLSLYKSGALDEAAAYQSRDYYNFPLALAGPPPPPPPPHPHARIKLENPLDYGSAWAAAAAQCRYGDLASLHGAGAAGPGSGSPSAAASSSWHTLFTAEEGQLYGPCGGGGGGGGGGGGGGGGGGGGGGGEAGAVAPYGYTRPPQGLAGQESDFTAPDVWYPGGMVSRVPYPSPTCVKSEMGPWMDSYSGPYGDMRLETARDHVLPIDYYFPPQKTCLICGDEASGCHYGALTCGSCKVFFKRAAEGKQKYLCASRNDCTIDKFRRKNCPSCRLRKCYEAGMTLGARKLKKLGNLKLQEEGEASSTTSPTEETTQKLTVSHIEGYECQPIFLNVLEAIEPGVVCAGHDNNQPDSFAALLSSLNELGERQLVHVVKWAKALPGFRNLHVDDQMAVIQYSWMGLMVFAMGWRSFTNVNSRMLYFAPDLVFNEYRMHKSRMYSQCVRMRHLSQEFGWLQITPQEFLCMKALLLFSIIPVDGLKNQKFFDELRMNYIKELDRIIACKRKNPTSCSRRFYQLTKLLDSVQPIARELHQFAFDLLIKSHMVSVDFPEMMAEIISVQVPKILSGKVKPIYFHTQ
As to the kind of experiment: Androgen-induced PSA (6.1 kb)-luciferase reporter assay in LNCaP cells. The series is classed as cell-based. The settings on record: LNCaP cells transfected with PSA (6.1 kb)-luciferase reporter, R1881 1 nM, 24 h; read-out: PSA-Luc IC50 Range. The essentials: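 LNCaP cells carrying a PSA (6.1 kb) promoter-luciferase reporter with AREs; androgen-induced firefly luciferase read from lysates for 10 s. RLU normalized to protein content; IC50 calculated from the normalized data.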
For orientation: A reporter such as luciferase makes a cellular process visible.

A short description of series [1]: Microsomal stability assay, mouse liver microsomes. The class given is in vitro ADME. The settings on record: mouse, liver microsomes, pH 7.4, mouse liver microsomes, 1 μM compound, 0.5 mg/mL protein, 37° C.; read-out: MLM +30/− NADPH: Clint (μL/min/mg protein). A digest of the protocol: (§1)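 Compound at 1 μM was incubated at 37° C with 0.5 mg/mL liver microsomes and 1 mM NADPH and/or 1 mM UDPGA (with alamethicin) in 100 mM potassium phosphate pH 7.4, 3 mM MgCl2. Samples were taken at 0, 15, 30 and 60 min and measured by LC/MS/MS. t½ came from compound loss relative to 0 min, and Clint was scaled with 45 mg microsomal protein/g liver.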
A general note: Liver microsomes are vesicles of endoplasmic reticulum, rich in cytochrome P450 enzymes.

Series [2] can be described thus: Microsomal stability assay, human liver microsomes. The class given is in vitro ADME. The following applies: pH 7.4, 1 μM compound, 0.5 mg/mL protein, 37° C., read-out: HLM +/− NADPH: Clint (μL/min/mg protein). The essentials: as §1
Series [3] can be described thus: Hepatocyte stability assay, mouse hepatocytes. The settings on record: mouse, cryopreserved hepatocytes, 1 μM compound, 0.5 million cells/mL, 37° C., read-out: MH +/− NADPH: Clint (μL/min/million cells). The class given is in vitro ADME. A digest of the protocol: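 Cryopreserved rat, human or mouse hepatocytes at 0.5 million cells/mL in DMEM with 1 μM compound, 37° C, sampled at 0, 60, 120 and 180 min and quenched with acetonitrile/formic acid. Parent loss vs 0-min by LC/MS/MS gave t½, and Clint = 0.693/t½ × mL incubation/million cells.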

Take `CC(C)S(=O)(=O)c1nc(COc2ccc(C(C)(C)c3cc(Cl)c(OCCCl)c(C#N)c3)cc2)co1` [Compound A125]: at androgen receptor (AR), the IC50 (as a rule, the concentration that gives 50% inhibition) was under 500 nM. For the same compound, the microsomal CLint at 1 μM in series [1] is at least 48 µL/min/mg; in series [2], under 12 µL/min/mg. Also, the hepatocyte CLint at 1 μM in series [3] is at least 18 µL/min/1e6 cells.

In the case of `Cc1nc(S(C)(=O)=O)oc1COc1ccc(C(C)(C)c2cc(Cl)c(OCCCl)c(C#N)c2)cc1` [Compound A81], the IC50 on androgen receptor (AR) is under 500 nM. Also, the results for the microsomal CLint at 1 μM in series [1] and in series [2] were at least 48 µL/min/mg and 12 to 48 µL/min/mg, respectively. The hepatocyte CLint at 1 μM in series [3] is at least 18 µL/min/1e6 cells.

In the case of `CC(C)(c1ccc(OCc2ccnc(N3CCCS3(=O)=O)n2)cc1)c1cc(Cl)c(OCCCl)c(C#N)c1` [Compound A199], the IC50 on androgen receptor (AR) was under 500 nM. Further, the microsomal CLint at 1 μM was at least 48 µL/min/mg in series [1] and under 12 µL/min/mg in series [2]. Also, the hepatocyte CLint at 1 μM in series [3] was in the range of 4 to 18 µL/min/1e6 cells.

With `Cc1cc(C(C)(C)c2ccc(OC(C)c3ocnc3S(C)(=O)=O)cc2)cc(C#N)c1OCCCl` (stereo not drawn) [Compound A88], the IC50 at androgen receptor (AR) lay within 500 to 2000 nM. In addition, the microsomal CLint at 1 μM in series [1] and in series [2] was at least 48 µL/min/mg each time. The hepatocyte CLint at 1 μM in series [3] was at least 18 µL/min/1e6 cells.

In the case of `CC(C)(c1ccc(OCc2ncc(NS(C)(=O)=O)s2)cc1)c1cc(Cl)c(OCCCl)c(C#N)c1` [Compound A135], the IC50 on androgen receptor (AR) was under 500 nM. Moreover, the microsomal CLint at 1 μM in series [1] and in series [2] was 12 to 48 µL/min/mg throughout. In series [3], the hepatocyte CLint at 1 μM is at least 18 µL/min/1e6 cells.

Regarding `CC(C)(c1ccc(OCc2cnc(NS(C)(=O)=O)o2)cc1)c1cc(Cl)c(OCCCl)c(C#N)c1` [Compound A133], the IC50 on androgen receptor (AR) is under 500 nM. The microsomal CLint at 1 μM in series [1] and in series [2] was at least 48 µL/min/mg each time. For the same compound, the hepatocyte CLint at 1 μM in series [3] is at least 18 µL/min/1e6 cells.

As for `CC(C)(c1ccc(OCc2cc(NS(C)(=O)=O)ccn2)cc1)c1cc(Cl)c(OCCCl)c(C#N)c1` [Compound A196], at androgen receptor (AR), the IC50 lay within 500 to 2000 nM. The microsomal CLint at 1 μM in series [1] is under 12 µL/min/mg; in series [2], 12 to 48 µL/min/mg. The hepatocyte CLint at 1 μM in series [3] is under 4 µL/min/1e6 cells.

On to `CC(C)(c1ccc(OCC2COC(NS(C)(=O)=O)=N2)cc1)c1ccc(OCCCl)c(C#N)c1` (stereo not drawn) [Compound A143], for which, on androgen receptor (AR), the IC50 was over 2000 nM. For the same compound, the microsomal CLint at 1 μM in series [1] and in series [2] was under 12 µL/min/mg in each case. Besides, the hepatocyte CLint at 1 μM in series [3] is under 4 µL/min/1e6 cells.

As to `CC(C)(c1ccc(OCc2nc(NS(C)(=O)=O)nc3c2CCC3)cc1)c1cc(Cl)c(OCCCl)c(C#N)c1` [Compound A202], the IC50 on androgen receptor (AR) was in the range of 500 to 2000 nM. Moreover, the microsomal CLint at 1 μM in series [1] was at least 48 µL/min/mg; in series [2] it was under 12 µL/min/mg. Further, the hepatocyte CLint at 1 μM in series [3] was at least 18 µL/min/1e6 cells.

On to `Cc1nc(NS(C)(=O)=O)nc(COc2ccc(C(C)(C)c3cc(Cl)c(OCCCl)c(C#N)c3)cc2)c1C` [Compound A123], for which, at androgen receptor (AR), the IC50 is under 500 nM. The microsomal CLint at 1 μM in series [1] is at least 48 µL/min/mg; in series [2], under 12 µL/min/mg. For the same compound, in series [3], the hepatocyte CLint at 1 μM was in the range of 4 to 18 µL/min/1e6 cells.

Regarding `CC(Oc1ccc(C(C)(C)c2cc(Cl)c(OCCCl)c(C#N)c2)cc1)c1coc(S(C)(=O)=O)n1` (stereo not drawn) [Compound A85], the IC50 at androgen receptor (AR) was under 500 nM. The microsomal CLint at 1 μM in series [1] was at least 48 µL/min/mg; in series [2], under 12 µL/min/mg. In addition, the hepatocyte CLint at 1 μM in series [3] is at least 18 µL/min/1e6 cells.

Take `CC(C)(c1ccc(OCc2cnc(CN)o2)cc1)c1cc(Cl)c(OCCCl)c(C#N)c1` [Compound A192]: the IC50 at androgen receptor (AR) is under 500 nM. Besides, the microsomal CLint at 1 μM in series [1] and in series [2] was 12 to 48 µL/min/mg in each case. Further, the hepatocyte CLint at 1 μM in series [3] was at least 18 µL/min/1e6 cells.

Take `CC(Oc1ccc(C(C)(C)c2cc(Cl)c(OCCCl)c(C#N)c2)cc1)c1ccnc(S(C)(=O)=O)n1` (stereo not drawn) [Compound A147]: the IC50 at androgen receptor (AR) was over 2000 nM. Further, the microsomal CLint at 1 μM is at least 48 µL/min/mg in series [1] and 12 to 48 µL/min/mg in series [2]. For the same compound, the hepatocyte CLint at 1 μM in series [3] was at least 18 µL/min/1e6 cells.

For `C[C@](O)(c1ccc(OCc2ocnc2S(C)(=O)=O)cc1)c1cc(Cl)c(OCCCl)c(C#N)c1` [Compound A108], on androgen receptor (AR), the IC50 was 500 to 2000 nM. Also, the microsomal CLint at 1 μM in series [1] was at least 48 µL/min/mg; in series [2] it was under 12 µL/min/mg. Further, in series [3], the hepatocyte CLint at 1 μM is at least 18 µL/min/1e6 cells.

For `CC(C)(c1ccc(OCc2ccnc(S(C)(=O)=O)n2)cc1)c1cc(Cl)c(OCCCl)c(C#N)c1` [Compound A124], at androgen receptor (AR), the IC50 was over 2000 nM. The microsomal CLint at 1 μM is at least 48 µL/min/mg in series [1] and under 12 µL/min/mg in series [2]. For the same compound, in series [3], the hepatocyte CLint at 1 μM is at least 18 µL/min/1e6 cells.

`CC(C)(c1ccc(OCc2ncc(S(C)(=O)=O)o2)cc1)c1cc(Cl)c(OCCCl)c(C#N)c1` [Compound A153]: the IC50 at androgen receptor (AR) was 500 to 2000 nM. The figures for the microsomal CLint at 1 μM in series [1] and in series [2] were 12 to 48 µL/min/mg and under 12 µL/min/mg, respectively. Moreover, the hepatocyte CLint at 1 μM in series [3] is 4 to 18 µL/min/1e6 cells.

Take `CC(C)(c1ccc(OCc2coc(N)n2)cc1)c1cc(Cl)c(OCCCl)c(C#N)c1` [Compound A155]: the IC50 at androgen receptor (AR) was under 500 nM. The microsomal CLint at 1 μM is at least 48 µL/min/mg in series [1] and 12 to 48 µL/min/mg in series [2]. For the same compound, the hepatocyte CLint at 1 μM in series [3] is 4 to 18 µL/min/1e6 cells.

For the compound `CC(C)(c1ccc(OCc2cccc(NS(C)(=O)=O)n2)cc1)c1cc(Cl)c(OCCCl)c(C#N)c1` [Compound A194], at androgen receptor (AR), the half-inhibitory concentration (IC50) lay within 500 to 2000 nM. For the same compound, the microsomal CLint at 1 μM in series [1] and in series [2] was under 12 µL/min/mg each time. Moreover, the hepatocyte CLint at 1 μM in series [3] was under 4 µL/min/1e6 cells.

For `CC(C)(c1ccc(OCc2cnc(Cl)o2)cc1)c1cc(Cl)c(OCCCl)c(C#N)c1` [Compound A115], the IC50 on androgen receptor (AR) is under 500 nM. The microsomal CLint at 1 μM in series [1] and in series [2] was under 12 µL/min/mg each time. Further, the hepatocyte CLint at 1 μM in series [3] is at least 18 µL/min/1e6 cells.

For the compound `Cc1cc(C(C)(C)c2ccc(OCc3csc(S(C)(=O)=O)n3)cc2)cc(C#N)c1OCCCl` [Compound A86], the IC50 at androgen receptor (AR) is under 500 nM. Moreover, the microsomal CLint at 1 μM in series [1] and in series [2] was 12 to 48 µL/min/mg each time. In series [3], the hepatocyte CLint at 1 μM was at least 18 µL/min/1e6 cells.

Turning to `CC(C)(c1ccc(OCc2nccc(NS(C)(=O)=O)n2)cc1)c1cc(Cl)c(OCCCl)c(C#N)c1` [Compound A184, N-(2-((4-(2-(3-chloro-4-(2-chloroethoxy)-5-cyanophenyl)propan-2-yl)phenoxy)methyl)pyrimidin-4-yl)methanesulfonamide], on androgen receptor (AR), the IC50 is over 2000 nM. The microsomal CLint at 1 μM in series [1] and in series [2] was under 12 µL/min/mg each time. In addition, the hepatocyte CLint at 1 μM in series [3] was under 4 µL/min/1e6 cells.

These data come from patent US11059795B2, “Androgen receptor modulators and methods for their use” (ESSA Pharma, Inc., priority 2018, dated 2021).
